Experimental data as given in patent US9193722B2, “Tri-cyclic pyrazolopyridine kinase inhibitors” (Vertex Pharmaceuticals Incorporated, priority 2008, dated 2015).

How the values were obtained:
Format in all cases: biochemical
PKC theta kinase = PKC theta kinase (Homo sapiens, UniProt Q04759); assay: PKC theta kinase inhibition, coupled-enzyme (NADH absorbance) assay, Ki; conditions: 240 μM ATP, 18 nM PKC theta kinase, 30° C.
Outline: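 Enzyme and compound equilibrated 10 min at 30 °C before reaction in HEPES pH 7.5 buffer with MgCl2, NaCl, EDTA and Brij. Activity tracked as NADH loss at 340 nm through a coupled system. Initial-rate data fitted by non-linear regression to give Ki.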

PKC delta kinase = PKC delta kinase (Homo sapiens, UniProt Q05655); assay: PKC delta kinase inhibition, coupled-enzyme (NADH absorbance) assay, Ki; conditions: 150 μM ATP, 46 nM PKC delta kinase, 30° C.; read-out: Ki PKC delta
Outline: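 Enzyme and compound pre-equilibrated 10 min at 30° C before adding ATP to 150 μM final. Buffer: HEPES pH 7.5 (100 mM), 10 mM MgCl2, 25 mM NaCl, 0.1 mM EDTA, 0.01% Brij.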

PKC alpha kinase = PKC alpha kinase (Homo sapiens, UniProt P17252); assay: PKC alpha kinase inhibition, coupled-enzyme (NADH absorbance) assay, Ki; conditions: 130 μM ATP, 4.5 nM PKC alpha kinase, 30° C.
Outline: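 Ki derived by non-linear regression of initial rates from a coupled assay tracking NADH absorbance at 340 nm over 15 min at 30 °C. ATP was 130 μM final after a 10 min compound–enzyme preincubation in HEPES pH 7.5 buffer with MgCl2, CaCl2, NaCl, EDTA and Brij.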

Chain of PKC delta kinase (Q05655 whole entry): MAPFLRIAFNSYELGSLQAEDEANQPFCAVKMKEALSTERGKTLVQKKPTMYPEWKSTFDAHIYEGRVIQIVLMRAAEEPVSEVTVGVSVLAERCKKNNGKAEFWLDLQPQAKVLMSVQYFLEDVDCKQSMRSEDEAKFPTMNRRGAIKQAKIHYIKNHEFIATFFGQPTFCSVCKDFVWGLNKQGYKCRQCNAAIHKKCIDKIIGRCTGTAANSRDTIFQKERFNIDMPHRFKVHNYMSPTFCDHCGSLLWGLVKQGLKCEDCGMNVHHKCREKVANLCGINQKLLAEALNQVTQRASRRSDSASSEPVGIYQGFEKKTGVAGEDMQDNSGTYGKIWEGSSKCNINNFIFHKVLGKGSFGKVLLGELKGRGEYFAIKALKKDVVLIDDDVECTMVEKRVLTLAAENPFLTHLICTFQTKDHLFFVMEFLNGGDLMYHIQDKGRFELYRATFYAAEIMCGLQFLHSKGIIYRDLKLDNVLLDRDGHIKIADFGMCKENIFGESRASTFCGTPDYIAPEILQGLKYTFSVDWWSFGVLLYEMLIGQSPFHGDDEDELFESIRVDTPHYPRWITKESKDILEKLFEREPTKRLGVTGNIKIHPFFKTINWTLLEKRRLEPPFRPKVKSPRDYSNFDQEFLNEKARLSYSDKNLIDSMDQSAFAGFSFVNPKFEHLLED
Chain of PKC theta kinase (Q04759 whole entry): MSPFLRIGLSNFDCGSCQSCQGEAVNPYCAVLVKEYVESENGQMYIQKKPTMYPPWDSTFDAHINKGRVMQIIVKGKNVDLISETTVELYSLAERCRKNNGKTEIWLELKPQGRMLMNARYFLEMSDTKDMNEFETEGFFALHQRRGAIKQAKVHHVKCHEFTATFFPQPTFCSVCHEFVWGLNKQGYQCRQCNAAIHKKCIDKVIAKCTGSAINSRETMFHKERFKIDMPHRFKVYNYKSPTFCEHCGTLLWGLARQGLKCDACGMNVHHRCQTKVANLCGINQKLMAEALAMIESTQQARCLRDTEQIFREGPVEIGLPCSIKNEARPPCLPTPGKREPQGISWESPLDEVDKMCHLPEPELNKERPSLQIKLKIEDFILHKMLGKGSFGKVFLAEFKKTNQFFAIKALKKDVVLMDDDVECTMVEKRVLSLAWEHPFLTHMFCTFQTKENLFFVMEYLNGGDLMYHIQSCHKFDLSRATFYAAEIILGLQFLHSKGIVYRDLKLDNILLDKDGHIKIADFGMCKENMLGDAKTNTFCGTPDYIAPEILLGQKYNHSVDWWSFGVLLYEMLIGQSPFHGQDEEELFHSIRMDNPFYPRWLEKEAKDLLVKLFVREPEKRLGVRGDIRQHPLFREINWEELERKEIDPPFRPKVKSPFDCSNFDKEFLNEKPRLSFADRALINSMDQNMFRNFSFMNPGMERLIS

| Structure (SMILES) | Ki (PKC theta kinase) [nM] | Ki (PKC delta kinase) [nM] | Ki (PKC alpha kinase) [nM] |
| --- | --- | --- | --- |
| CC(C)(C(N)C1CCCN(c2ccc(F)c(-c3n[nH]c4ncccc34)n2)C1)C(F)(F)F (stereo not drawn) [Compound 394] | < 500 | > 1250 | > 1250 |
| CNC(=O)C1CN(c2ccc(C(F)(F)F)c(-c3n[nH]c4ncccc34)n2)CCN1 (stereo not drawn) [Compound 214] | > 700 | > 1250 | > 1250 |
| CC[C@H]1CN(c2cccc(-c3n[nH]c4ncccc34)n2)C[C@H](CC(C)C)N1 [Compound 12] | < 500 | > 2000 | > 1250 |
| NC1CCN(c2ccc(C(F)(F)F)c(-c3n[nH]c4ncccc34)n2)CC1 [Compound 126] | < 500 | > 1250 | > 1250 |
| CC(C)C(C)(O)C1CN(c2nc(-c3n[nH]c4ncccc34)c(F)cc2F)CCN1 (stereo not drawn) [Compound 444] | < 500 | > 1250 | > 1250 |
| Cc1cc(N2CCC(N)CC2)nc(-c2n[nH]c3ncccc23)c1Cl [Compound 109] | < 2800 | > 1250 | > 1250 |
| NC1CCN(c2ccc(C(F)(F)F)c(-c3n[nH]c4ncccc34)n2)CC12CCOCC2 (stereo not drawn) [Compound 462] | < 500 | < 2800 | > 1250 |
| NC(=O)C1CCCN(c2ccc(F)c(-c3n[nH]c4ncccc34)n2)C1 (stereo not drawn) [Compound 302] | > 700 | > 1250 | > 1250 |
| C=C(F)c1cc(-c2n[nH]c3ncccc23)nc(N2CCNCC2)c1 [Compound 92] | < 500 | < 500 | > 1250 |
| CC(C)(O)C1CN(c2ccc(C(F)(F)F)c(-c3n[nH]c4ncccc34)n2)CCN1 (stereo not drawn) [Compound 87] | < 500 | > 2000 | > 1250 |
| FC(F)(F)c1ccc(N2CCNC(c3cccc(Br)c3)C2)nc1-c1n[nH]c2ncccc12 (stereo not drawn) [Compound 172] | < 500 | > 1250 | < 2800 |
| Fc1ccc(C2CCNCC2)nc1-c1n[nH]c2ncccc12 [Compound 440] | < 500 | > 1250 | > 1250 |
| CC(C)C(F)(F)C1CN(c2cccc(-c3n[nH]c4ncccc34)n2)CCN1 (stereo not drawn) [Compound 143] | < 500 | < 2800 | > 1250 |
| CCC(N)(CC)C1CCCN(c2ccc(F)c(-c3n[nH]c4ncccc34)n2)C1 (stereo not drawn) [Compound 377] | < 500 | < 2800 | > 1250 |
| CC1(C)CC1(O)C1CN(c2ccc(F)c(-c3n[nH]c4ncccc34)n2)CCN1 (stereo not drawn) [Compound 383] | < 500 | > 1250 | > 1250 |
| CNC1CCN(c2cccc(-c3n[nH]c4ncccc34)n2)C1 (stereo not drawn) [Compound 24] | < 2800 | > 2000 | > 1250 |
| FC(F)(F)c1ccc(N2CCCNCC2)nc1-c1n[nH]c2ncccc12 [Compound 97] | < 500 | > 2000 | > 1250 |
| CCC[C@H]1CN(c2ccc(C(F)(F)F)c(-c3n[nH]c4ncccc34)n2)CC(F)(F)CN1 [Compound 223] | > 700 | > 1250 | > 1250 |
| COc1cccc(C2CN(c3cccc(-c4n[nH]c5ncccc45)n3)CCN2)c1 (stereo not drawn) [Compound 35] | < 500 | > 2000 | < 500 |
| CC(C)CC1(CN)CCN(c2ccc(F)c(-c3n[nH]c4ncccc34)n2)CC1 [Compound 467] | < 500 | > 1250 | > 1250 |
| C[C@H]1CN(c2ccc(C(F)(F)F)c(-c3n[nH]c4ncccc34)n2)CCN1 [Compound 116] | < 500 | < 2800 | > 1250 |
| Cc1cc(N2CCNCC2)nc(-c2n[nH]c3ncccc23)c1Cl [Compound 95] | < 2800 | < 2800 | > 1250 |
| Fc1ccc(N2CCc3[nH]ncc3C2)nc1-c1n[nH]c2ncccc12 [Compound 298] | > 700 | > 1250 | > 1250 |
| NCC1CN(c2ccc(C(F)(F)F)c(-c3n[nH]c4ncccc34)n2)CCO1 (stereo not drawn) [Compound 336] | > 700 | > 1250 | > 1250 |
| CC1CN(c2ccc(C(F)(F)F)c(-c3n[nH]c4ncccc34)n2)CC1CN (stereo not drawn) [Compound 332] | > 700 | > 1250 | > 1250 |

Now from value to compound:

| Ki (PKC theta kinase) [nM] | Ki (PKC delta kinase) [nM] | Ki (PKC alpha kinase) [nM] | Structure (SMILES) |
| --- | --- | --- | --- |
| < 50 | < 2800 | < 2800 | CC(C)C[C@H]1CN(c2ccc(C(F)(F)F)c(-c3n[nH]c4ncc(F)cc34)n2)CCN1 [Compound 44] |
| < 500 | < 2800 | > 1250 | CC(C)C[C@H]1CN(c2ccc(-c3ccccc3)c(-c3n[nH]c4ncccc34)n2)CCN1 [Compound 49] |
| < 50 | < 50 | < 500 | c1cc(-c2n[nH]c3ncccc23)nc(N2CCNC3(CCC3)C2)c1 [Compound 187] |
| < 50 | < 2800 | > 1250 | CCCC1CN(c2ccc(Cl)c(-c3n[nH]c4ncccc34)n2)CCN1 (stereo not drawn) [Compound 123] |
| < 50 | > 1250 | > 1250 | CC(C)(F)C(C)(O)C1CN(c2ccc(F)c(-c3n[nH]c4ncccc34)n2)CCN1 (stereo not drawn) [Compound 249] |
| < 50 | < 500 | < 2800 | CCC(C)(O)C1CN(c2cccc(-c3n[nH]c4ncccc34)n2)CCN1 (stereo not drawn) [Compound 160] |
| < 50 | < 500 | < 2800 | CCCC1CN(c2cccc(-c3n[nH]c4ncccc34)n2)CCN1 (stereo not drawn) [Compound 59] |
| < 50 | < 500 | > 1250 | CCC(C)(O)C1CN(c2ccc(F)c(-c3n[nH]c4ncccc34)n2)CCN1 (stereo not drawn) [Compound 161] |
| < 50 | < 2800 | > 1250 | CCC1CN(c2ccc(F)c(-c3n[nH]c4ncccc34)n2)CCC1C#N (stereo not drawn) [Compound 407] |
| < 1 | < 50 | < 2800 | CC(C)C(C)(O)C1CN(c2cccc(-c3n[nH]c4ncccc34)n2)CCN1 (stereo not drawn) [Compound 177] |
| < 50 | < 500 | > 1250 | CC(C)C(C)(O)C1CN(c2nc(-c3n[nH]c4ncccc34)ccc2F)CCN1 (stereo not drawn) [Compound 374] |
| < 50 | < 500 | > 1250 | COC[C@H]1CN(c2cccc(-c3n[nH]c4ncccc34)n2)CCN1 [Compound 184] |
| < 50 | < 500 | > 1250 | OC1(C2CN(c3ccc(F)c(-c4n[nH]c5ncccc45)n3)CCN2)CCCC1 (stereo not drawn) [Compound 245] |
| < 50 | < 500 | < 500 | CC(C)C[C@]1(O)CN(c2ccc(C(F)(F)F)c(-c3n[nH]c4ncccc34)n2)CC[C@H]1N [Compound 218] |
| < 50 | < 500 | < 2800 | CC(C)(C)C[C@H]1CN(c2ccc(Cl)c(-c3n[nH]c4ncccc34)n2)CCN1 [Compound 141] |
| < 50 | < 2800 | > 1250 | Fc1ccc(N2CCNC(CC(F)(F)F)C2)nc1-c1n[nH]c2ncccc12 (stereo not drawn) [Compound 206] |
| < 50 | < 500 | < 2800 | CCC(C)(O)C1CN(c2ccc(F)c(-c3n[nH]c4ncccc34)n2)CCN1 (stereo not drawn) [Compound 241] |
| < 1 | < 10 | < 500 | CC(C)C(C)(O)C1CN(c2nc(-c3n[nH]c4ncccc34)ccc2F)CCN1 (stereo not drawn) [Compound 328] |
